Where two headings read alike, the source gives them in different places.

These results are taken from patent US7432302B2, “Composition containing polyamine transport inhibitor and use thereof” (MediQuest Therapeutics, Inc., priority 2001, dated 2008).

The conditions of series [1]: rats, 10-day treatment with drug in drinking water; cited from earlier work.
Series [2] concerns levels of spermidine or spermine in rat prostate. Particulars: oral, 0.02% or 0.1% in drinking water; cited from earlier work.
Series [3] relates to epidermal ornithine decarboxylase activity. Particulars: mice, 0.5% BHT in food for two weeks, UV radiation; cited from earlier work.
The test system of series [4] is cell growth in the presence of DFMO. The series can be described thus: Growth inhibition assay in combination with DFMO. For Ave EC50 Value: 0.5 µM SPD. Particulars: for EC50: 144 h. Type of series: cell-based. How it is done:
Medias were obtained from Mediatech, Inc. (Hemdon, Va.) and serums from Gibco BRL (Gaithersburg, Md.). 50 U/ml penicillin, 50 μg/ml streptomycin and 2 mM L-glutamine (all from Bio Whittaker, Walkersville, Md.) were included in all cultures. […] When cells were cultured with polyamines or ORI compounds, 1 mM aminoguanidine (AG; Sigma) was included to inhibit serum amine oxidase activity.

In another series the test system is polyamine transporter. The series can be described thus: Polyamine transport inhibition (3H-spermidine uptake, MDA-MB-231 cells). The series is classed as cell-based, human. How it is done: The Ki values were determined using double reciprocal Lineweaver-Burke plot analyses.
A further series addresses T1, spermine synthase (Homo sapiens, UniProt P52788).
T1 sequence (P52788 1-366): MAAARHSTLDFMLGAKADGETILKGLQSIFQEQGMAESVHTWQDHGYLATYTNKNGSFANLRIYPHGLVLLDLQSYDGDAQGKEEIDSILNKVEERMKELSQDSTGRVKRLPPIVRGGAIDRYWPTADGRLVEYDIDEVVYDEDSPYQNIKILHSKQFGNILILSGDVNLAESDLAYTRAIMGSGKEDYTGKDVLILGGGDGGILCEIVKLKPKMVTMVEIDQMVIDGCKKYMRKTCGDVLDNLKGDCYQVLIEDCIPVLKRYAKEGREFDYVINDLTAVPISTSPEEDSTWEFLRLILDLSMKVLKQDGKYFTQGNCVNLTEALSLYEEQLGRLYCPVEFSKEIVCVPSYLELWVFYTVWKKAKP
The following applies: cited from earlier work.

The subject of another series is cultured follicles. The following applies: in culture media: DFMO 500 μM; N-butyl-1,3-diaminopropane 50 μM; cited from earlier work.
The subject of another series is ODC activity. Particulars: at 4 to 5 hr after TPA treatment; cited from earlier work.
The target in the next series is T2, ODC (Rattus norvegicus, UniProt P09057).
T2 construct: from tissue; host or cells: rat liver
T2 sequence (P09057 1-461): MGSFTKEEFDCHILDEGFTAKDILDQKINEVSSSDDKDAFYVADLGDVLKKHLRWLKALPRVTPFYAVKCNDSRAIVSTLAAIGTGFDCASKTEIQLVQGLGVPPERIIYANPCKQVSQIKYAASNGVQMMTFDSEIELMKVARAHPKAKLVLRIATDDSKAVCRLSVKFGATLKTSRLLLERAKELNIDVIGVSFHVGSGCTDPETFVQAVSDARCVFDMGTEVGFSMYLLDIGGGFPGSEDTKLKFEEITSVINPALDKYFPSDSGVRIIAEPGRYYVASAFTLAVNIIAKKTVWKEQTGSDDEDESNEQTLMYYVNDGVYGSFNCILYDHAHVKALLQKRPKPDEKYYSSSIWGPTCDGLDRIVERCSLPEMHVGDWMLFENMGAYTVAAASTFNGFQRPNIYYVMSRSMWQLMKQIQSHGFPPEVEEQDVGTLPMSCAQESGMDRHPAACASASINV
The following applies: cited from earlier work.

As for `NCCCNC1CCCCC1` [APCHA, N-(3-aminopropyl)cyclohexylamine], the 50% lethal dose (LD50) (commonly the dose expected to kill half of the subjects tested) in series [1] is listed as > 500 mg/kg. Also, the “levels of spermidine or spermine in rat prostate” value in series [2] is given as “significantly reduced levels”.

Take `Cc1cc(C(C)(C)C)c(O)c(C(C)(C)C)c1` [BHT, butylated hydroxytoluene]: the “inhibition of measured ODC activity” value in series [3] is on record as 70%.

For `CC1CCC(N)CC1` (centres unmarked) [Compound 4MCHA, 4-methylcyclohexylamine], in series [1], the LD50 result was “more than 250 mg/kg”. Also, in series [2], the “levels of spermidine or spermine in rat prostate” value is “significantly reduced levels”.

`CCCCCCCCCCCCCCCC(=O)NCCCC[C@H](N)C(=O)NCCCNCCCCNCCCN` [IA4]: the “potency in cell growth inhibition assay” value in [4] is reported as “demonstrated potency”. Besides, the concentration for a half-maximal effect (EC50) in series [4] (read-out: Ave EC50 Value) and in [4] (read-out: Ave EC50 value) was 130 nM in each case. Moreover, in the series with polyamine transporter, the “potency in transporter inhibition assay” value is on record as “demonstrated potency”.

On to `CCCCNCCCN` [N-butyl-1,3-diaminopropane], for which the Ki (as a rule, a dissociation constant, usually derived from enzyme kinetics or from competition with a known ligand) on spermine synthase is 11.9 nM. In addition, the “effect on the growth of cultured follicles” value in the series on cultured follicles was “no effect”.

`CCCCCCCCCCCCCC(=O)O[C@@H]1[C@@H](C)[C@@]2(O)[C@@H](C=C(CO)C[C@]3(O)C(=O)C(C)=C[C@@H]23)[C@@H]2C(C)(C)[C@]12OC(C)=O` [TPA, 12-O-tetradecanoyl-phorbol-13-acetate]: the “peak ODC activity greater than control” value in the series on ODC activity is 230 fold.

In the case of `NCCCC(N)(CCl)C(=O)O` (centres unmarked) [—CH2Cl], the t1/2 result on ODC (Table 1, at 100 μM) is listed as “t1/2 = 22 min”. On ODC (Table 1 substrate analogs, apparent dissociation constant, rat liver enzyme), the Ki value entry is recorded as “No satd kinetics”.
